Source: PubChem BioAssay (NCI)
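Results reflect a 48-hour exposure of cells in 96-well plates to compound at five concentrations. The concentration for 50% growth inhibition is given as GI50. TGI marks complete inhibition of growth.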

Assays:
Experiment in all cases: NCI-60 cell line screen, 48 h
SK-OV-3 ovarian = system: SK-OV-3 ovarian
HOP-92 NSCLC = system: HOP-92 NSCLC
HCT-116 colon = system: HCT-116 colon
A498 renal = system: A498 renal
UACC-257 melanoma = system: UACC-257 melanoma
SF-539 CNS = system: SF-539 CNS
OVCAR-5 ovarian = system: OVCAR-5 ovarian
786-0 renal = system: 786-0 renal
MCF7 breast = system: MCF7 breast
U251 CNS = system: U251 CNS
SF-268 CNS = system: SF-268 CNS
EKVX NSCLC = system: EKVX NSCLC
SF-295 CNS = system: SF-295 CNS
ACHN renal = system: ACHN renal
SK-MEL-2 melanoma = system: SK-MEL-2 melanoma
M14 melanoma = system: M14 melanoma
COLO 205 colon = system: COLO 205 colon
LOX IMVI melanoma = system: LOX IMVI melanoma
OVCAR-4 ovarian = system: OVCAR-4 ovarian
SN12C renal = system: SN12C renal
SNB-75 CNS = system: SNB-75 CNS
OVCAR-3 ovarian = system: OVCAR-3 ovarian
SW-620 colon = system: SW-620 colon
MALME-3M melanoma = system: MALME-3M melanoma
HL-60(TB) leukemia = system: HL-60(TB) leukemia
SR leukemia = system: SR leukemia
NCI-H226 lung = system: NCI-H226 lung
A549 NSCLC = system: A549 NSCLC
TK-10 renal = system: TK-10 renal
HCT-15 colon = system: HCT-15 colon
UACC-62 melanoma = system: UACC-62 melanoma
NCI/ADR-RES ovarian = system: NCI/ADR-RES ovarian
SNB-19 CNS = system: SNB-19 CNS
CCRF-CEM leukemia = system: CCRF-CEM leukemia
DU-145 prostate = system: DU-145 prostate
NCI-H23 lung = system: NCI-H23 lung
HOP-62 NSCLC = system: HOP-62 NSCLC
NCI-H522 lung = system: NCI-H522 lung
CAKI-1 renal = system: CAKI-1 renal
SK-MEL-28 melanoma = system: SK-MEL-28 melanoma
MOLT-4 leukemia = system: MOLT-4 leukemia
BT-549 breast = system: BT-549 breast
IGROV1 ovarian = system: IGROV1 ovarian
RXF 393 renal = system: RXF 393 renal
HT29 colon = system: HT29 colon
UO-31 renal = system: UO-31 renal
NCI-H460 lung = system: NCI-H460 lung
KM12 colon = system: KM12 colon
RPMI-8226 leukemia = system: RPMI-8226 leukemia
PC-3 prostate = system: PC-3 prostate
T-47D breast = system: T-47D breast
K-562 leukemia = system: K-562 leukemia
OVCAR-8 ovarian = system: OVCAR-8 ovarian
HS 578T breast = system: HS 578T breast
MDA-MB-435 = system: MDA-MB-435
HCC-2998 colon = system: HCC-2998 colon
MDA-MB-231 breast = system: MDA-MB-231 breast

For CC(=O)O[C@@H]1C(=O)N(c2cnccn2)[C@H]1c1ccccc1[N+](=O)[O-], the GI50 (SK-OV-3 ovarian) was 0.781 µM, the TGI (SK-OV-3 ovarian) was > 100 µM and the GI50 (HOP-92 NSCLC) was 0.356 µM. The TGI (HOP-92 NSCLC) was 10.9 µM, the GI50 (HCT-116 colon) was 0.33 µM and the TGI (HCT-116 colon) was 6.77 µM. For the same compound, the GI50 (A498 renal) was > 100 µM, the TGI (A498 renal) was > 100 µM and the GI50 (UACC-257 melanoma) was 0.992 µM. It also gave a TGI (UACC-257 melanoma) of 63 µM, a GI50 (SF-539 CNS) of 0.234 µM and a TGI (SF-539 CNS) of 0.575 µM. It also gave a GI50 (OVCAR-5 ovarian) of 0.55 µM, a TGI (OVCAR-5 ovarian) of 16.6 µM and a GI50 (786-0 renal) of 0.551 µM. The TGI (786-0 renal) was 13.4 µM, the GI50 (MCF7 breast) was 0.352 µM and the TGI (MCF7 breast) was > 64.2 µM. For the same compound, the GI50 (U251 CNS) was 0.366 µM, the TGI (U251 CNS) was 10.6 µM and the GI50 (SF-268 CNS) was 0.566 µM. For the same compound, the TGI (SF-268 CNS) was > 69.5 µM, the GI50 (EKVX NSCLC) was 0.518 µM and the TGI (EKVX NSCLC) was > 100 µM. For the same compound, the GI50 (SF-295 CNS) was 0.865 µM, the TGI (SF-295 CNS) was 12.4 µM and the GI50 (ACHN renal) was 0.596 µM. For the same compound, the TGI (ACHN renal) was 17.4 µM, the GI50 (SK-MEL-2 melanoma) was 1.96 µM and the TGI (SK-MEL-2 melanoma) was > 100 µM. For the same compound, the GI50 (M14 melanoma) was 0.323 µM, the TGI (M14 melanoma) was 5.98 µM and the GI50 (COLO 205 colon) was 3.02 µM. It also gave a TGI (COLO 205 colon) of 11.8 µM, a GI50 (LOX IMVI melanoma) of 0.283 µM and a TGI (LOX IMVI melanoma) of 1.69 µM. The GI50 (OVCAR-4 ovarian) was 0.72 µM, the TGI (OVCAR-4 ovarian) was > 100 µM and the GI50 (SN12C renal) was 0.432 µM. It also gave a TGI (SN12C renal) of 13.8 µM, a GI50 (SNB-75 CNS) of 0.357 µM and a TGI (SNB-75 CNS) of 3.1 µM. For the same compound, the GI50 (OVCAR-3 ovarian) was 0.288 µM, the TGI (OVCAR-3 ovarian) was 3.3 µM and the GI50 (SW-620 colon) was 0.396 µM. The TGI (SW-620 colon) was 19.3 µM, the GI50 (MALME-3M melanoma) was 0.526 µM and the TGI (MALME-3M melanoma) was 40.9 µM. For the same compound, the GI50 (HL-60(TB) leukemia) was 0.288 µM, the GI50 (SR leukemia) was 0.35 µM and the TGI (SR leukemia) was > 100 µM. The GI50 (NCI-H226 lung) was 0.527 µM, the TGI (NCI-H226 lung) was 9.4 µM and the GI50 (A549 NSCLC) was 0.41 µM. The TGI (A549 NSCLC) was > 100 µM, the GI50 (TK-10 renal) was 14 µM and the TGI (TK-10 renal) was 49.9 µM. The GI50 (HCT-15 colon) was 0.421 µM, the TGI (HCT-15 colon) was 14.5 µM and the GI50 (UACC-62 melanoma) was 0.327 µM. For the same compound, the TGI (UACC-62 melanoma) was 18.8 µM, the GI50 (NCI/ADR-RES ovarian) was 0.311 µM and the TGI (NCI/ADR-RES ovarian) was 7.51 µM. The GI50 (SNB-19 CNS) was 1.86 µM, the TGI (SNB-19 CNS) was > 100 µM and the GI50 (CCRF-CEM leukemia) was 0.435 µM. For the same compound, the TGI (CCRF-CEM leukemia) was > 100 µM, the GI50 (DU-145 prostate) was 0.512 µM and the TGI (DU-145 prostate) was > 100 µM. It also gave a GI50 (NCI-H23 lung) of 0.369 µM, a TGI (NCI-H23 lung) of 13 µM and a GI50 (HOP-62 NSCLC) of 1.14 µM. It also gave a TGI (HOP-62 NSCLC) of 18.3 µM, a GI50 (NCI-H522 lung) of 0.184 µM and a TGI (NCI-H522 lung) of 0.436 µM. It also gave a GI50 (CAKI-1 renal) of 0.487 µM, a TGI (CAKI-1 renal) of 13.3 µM and a GI50 (SK-MEL-28 melanoma) of 0.926 µM. The TGI (SK-MEL-28 melanoma) was 27.4 µM, the GI50 (MOLT-4 leukemia) was 0.452 µM and the TGI (MOLT-4 leukemia) was > 100 µM. The GI50 (BT-549 breast) was 0.295 µM, the TGI (BT-549 breast) was 1.24 µM and the GI50 (IGROV1 ovarian) was 0.529 µM. For the same compound, the TGI (IGROV1 ovarian) was 19 µM, the GI50 (RXF 393 renal) was 0.52 µM and the TGI (RXF 393 renal) was 3.56 µM. For the same compound, the GI50 (HT29 colon) was 2.54 µM, the TGI (HT29 colon) was 6.61 µM and the GI50 (UO-31 renal) was 0.616 µM. It also gave a TGI (UO-31 renal) of 16.3 µM, a GI50 (NCI-H460 lung) of 0.346 µM and a TGI (NCI-H460 lung) of 10.8 µM. For the same compound, the GI50 (KM12 colon) was 0.362 µM, the TGI (KM12 colon) was 19.4 µM and the GI50 (RPMI-8226 leukemia) was 0.384 µM. The TGI (RPMI-8226 leukemia) was 22.8 µM, the GI50 (PC-3 prostate) was 0.582 µM and the TGI (PC-3 prostate) was 25.7 µM. The GI50 (T-47D breast) was 18.5 µM, the TGI (T-47D breast) was > 100 µM and the GI50 (K-562 leukemia) was 0.341 µM. The TGI (K-562 leukemia) was > 100 µM, the GI50 (OVCAR-8 ovarian) was 0.299 µM and the TGI (OVCAR-8 ovarian) was 0.946 µM. The GI50 (HS 578T breast) was 0.92 µM, the TGI (HS 578T breast) was > 100 µM and the GI50 (MDA-MB-435) was 0.205 µM. For the same compound, the TGI (MDA-MB-435) was 0.456 µM, the GI50 (HCC-2998 colon) was 2.1 µM and the TGI (HCC-2998 colon) was 10.5 µM. It also gave a GI50 (MDA-MB-231 breast) of 0.351 µM and a TGI (MDA-MB-231 breast) of 4.85 µM.
